Drawing on US5529918A, “Process for preparing neuraminidase” (Fidia S.p.A., priority 1991, dated 1996), this text covers Ki for one compound.

The assay deals with neuraminidase from Arthrobacter Sp. (Arthrobacter ureafaciens VR-1, NCIMB 40717), purified, molecular weight 55,000-60,000. Put plainly: Neuraminidase enzymatic activity and inhibition (thiobarbituric acid method, released NANA). Type of assay: biochemical. To be noted: inhibition of the neuraminidase by NANA; GDia as substrate in the activity test. As to the method: The enzymatic activity of the neuraminidase is determined at the saturation levels of the substrate concentration, corresponding to 5 times the Km value.
The released product is measured by employing the colorimetric technique (thiobarbituric acid method). For instance, when the neuraminidase enzyme and its substrate (a ganglioside like GDia) are incubated for 5-10 minutes and the NANA, hydrolyzed from the substrate, is employed for evaluating the enzymatic activity, the NANA released in the solution undergoes a series of reactions, in order to determine its actual amount.
Since NANA is also employed for obtaining the culture media of the steady state wherefrom the filtrate is extracted, a few check reactions are carried out, in order to ascertain that the measured NANA be the one coming from the reaction between enzyme and substrate and not the one coming as a residue from the original culture.
For instance, a few tests are carried out on 3 test-tubes, as reported hereinbelow. […]
In the first test-tube (S) there should be no NANA. Should NANA be retrieved in the second test-tube (B), its spectrophotometric reading is subtracted from the reading obtained from the reaction in test-tube three (E). The enzyme activity is therefore indirectly measured as the amount of hydrolized NANA per minute at pH 5.3 and at 37° C., using GDia as the substrate. […]

For orientation: Ki means a measure of affinity in units of concentration, obtained from inhibition or displacement. Regarding `CC(=O)N[C@H]1[C@H]([C@H](O)[C@H](O)CO)OC(O)(C(=O)O)C[C@@H]1O` (stereo partly shown) [NANA, N-acetyl-neuraminic acid], the Ki was around 300 µM.
